Data from ChEMBL document CHEMBL2203242, “A regio- and stereoselective 1,3-dipolar cycloaddition for the synthesis of new-fangled dispiropyrrolothiazoles as antimycobacterial agents” (Bioorg Med Chem Lett, 2012).
Values after ≈ are worked out from the molar mass of the structure shown.

Each molecule was assayed on Mycobacterium tuberculosis (assay: Antimycobacterial activity against isoniazid-resistant Mycobacterium tuberculosis by agar dilution method).
Format: functional

| SMILES | MIC90 |
| --- | --- |
| COc1cc2c(cc1OC)C(=O)[C@]1(C2)[C@@H](c2ccc(F)cc2)[C@@H]2CSCN2[C@@]12C(=O)Nc1ccc(OC(F)(F)F)cc12 | 16.6 µM (≈ 9.99 µg/mL) |
| COc1ccc([C@H]2[C@@H]3CSCN3[C@@]3(C(=O)Nc4ccc(OC(F)(F)F)cc43)[C@@]23Cc2cc(OC)c(OC)cc2C3=O)cc1OC | 22.2 µM (≈ 14.3 µg/mL) |
| COc1cc2c(cc1OC)C(=O)[C@]1(C2)[C@@H](c2ccccc2)[C@@H]2CSCN2[C@@]12C(=O)N(N1CCOCC1)c1ccccc12 | > 6.25 µM |
| NNC(=O)c1ccncc1 [ISONIAZID] | 11.2 µM (≈ 1.54 µg/mL) |
| COc1cc2c(cc1OC)C(=O)[C@]1(C2)[C@@H](c2ccccc2)[C@@H]2CSCN2[C@@]12C(=O)Nc1ccc(OC(F)(F)F)cc12 | > 6.25 µM |
| COc1cc2c(cc1OC)C(=O)[C@]1(C2)[C@@H](c2ccc(F)cc2)[C@@H]2CSCN2[C@@]12C(=O)N(N1CCOCC1)c1ccccc12 | 35.1 µM (≈ 21.1 µg/mL) |
| COc1cc2c(cc1OC)C(=O)[C@]1(C2)[C@@H](c2ccccc2Cl)[C@@H]2CSCN2[C@@]12C(=O)N(N1CCOCC1)c1ccccc12 | 18.3 µM (≈ 11.3 µg/mL) |
| COc1cc2c(cc1OC)C(=O)[C@]1(C2)[C@@H](c2ccccc2Cl)[C@@H]2CSCN2[C@@]12C(=O)Nc1ccc(OC(F)(F)F)cc12 | 36.4 µM (≈ 22.5 µg/mL) |
| COc1ccc([C@H]2[C@@H]3CSCN3[C@@]3(C(=O)N(N4CCOCC4)c4ccccc43)[C@@]23Cc2cc(OC)c(OC)cc2C3=O)cc1OC | 24.2 µM (≈ 15.6 µg/mL) |
